Read-outs that look alike come from different tables or passages of the source.
Experiments:
New Zealand white rabbit = test: Oral (nasogastric) NO-Cbi and rabbit blood pressure; assay type: in vivo
Experimental: An anesthetized New Zealand white rabbit was given NO-Cbi via a nasogastric tube at 10 and 100 (0.32 and 3.2 mg/kg) (FIG. 10a) or 10 and 50 (0.32 and 1.6 mg/kg) (FIG. 10b) times the dose used intravenously. Blood pressure was monitored continuously by an intra-arterial catheter, and was recorded every 5 minutes. The blood pressure was allowed to stabilize for 10 minutes prior to administering NO-Cbi.

[1] = for change of spectrum: room temperature, open to air
Experimental: NO-Cbi was diluted 100-fold into DMEM containing 10% FBS, transferred to a cuvette, and analyzed immediately by spectrophotometry between 300 and 600 nm (curve a). Spectra were obtained every 30 minutes for 3 hours, generating the family of curves, with curve b being the 3 hour spectrum; in the inset, curve b is the spectrum at 16 hours. The cuvette was open to air and kept at room temperature. The same experiment was repeated two times with similar results.
NO-Cbi was diluted 100-fold in water, PBS, or DMEM containing 10% FBS to a final concentration of 50 uM. It was analyzed spectrophotometrically between 300 and 600 nm in a Kontron 860 spectrophotometer, and by mass spectroscopy using a LCQ classic ion-trap-type mass spectrometer (Thermo-Finnigan) at 160° C. capillary temperature and 5000V spray voltage. The mass spectrometry data were acquired in profile mode and analyzed on Xcalibur software.

mice = assay type: in vivo, mouse; details: 0.6 nmol three times at 32 minute intervals
[2] = system: Malpighian tubules isolated from D. melanogaster; test: Malpighian tubule fluid secretion; parameters: species or system Drosophila melanogaster
Experimental: Malpighian tubules are the osmoregulatory organs of D. melanogaster, corresponding to vertebrate kidneys. Tubular fluid secretion is stimulated by NO and cGMP, and fluid secretion rates were measured as described previously (Broderick K E et al. (2005) J. Biol. Chem. 280:8678-85). Briefly, the Malpighian tubule pair of a fly was resected and suspended in mineral oil. […]
Malpighian tubules are an excellent model for studying the effects of a drug on an intact organ system (Broderick K E et al. (2003) Am. J. Physiol. Cell Physiol. 285:C1207-18). […] Deta-NONOate may not be affected as much by cysteine in the medium, because it has a slower NO release rate and the intact drug can be transported intracellularly before much NO is released.

[3] = system: CS-54 rat vascular smooth muscle cells
Experimental: CS-54 rat vascular smooth muscle cells were treated with the indicated concentrations of NO-Cbi for 1 hour (A), or 10 μM NO-Cbi for the indicated times (B and C). […] (C) Cell extracts were clarified by centrifugation, and nitrite and nitrate in the extracts were measured by an enhanced Griess reagent method. In A and B, “Con” refers to control, which was cells treated with water. As indicated, the effects of 30 μM cobinamide (Cbi) and 100 μM 8-CPT-cGMP (cGMP) are shown for comparison. In A and B, similar results were obtained in two other experiments.
Nitrite and nitrate were measured in CS-54 cell extracts and fly extracts using a kit from Active Motif based on an enhanced Griess reagent, as described previously (Broderick K E et al. (2006) FASEB J. 20:1865-73).

CC1=C2[N+]3=C(C=C4[N+]5=C(C(C)=C6[N]7C(C(CC(N)=O)C6(C)CCC(=O)NCC(C)O)C6(C)[N+](=C1C(CCC(N)=O)C6(C)CC(N)=O)[Co-3]753[N]=O)C(CCC(N)=O)C4(C)C)C(CCC(N)=O)C2(C)CC(N)=O (stereo not shown) [NO-Cbi, nitrosyl cobinamide]
blood pressure on the higher dose (New Zealand white rabbit; 3.2 or 1.6 mg/kg via nasogastric tube): steeper decrease
time until blood pressure began to decrease (New Zealand white rabbit; low dose (0.32 mg/kg) via nasogastric tube): ≤ 10 min
blood pressure after 100 or 180 minutes (New Zealand white rabbit; via nasogastric tube): remained lower than baseline
duration of effect after each dose (New Zealand white rabbit; via nasogastric tube): at least 40 minutes
time for spectrum to change to that of cobinamide ([1]; DMEM containing 10% FBS): about 3 h
effect on NO-Cbi's half-life ([1]; buffer): significantly reduced
half-life ([1]; buffer): ~1.5 h
change of spectrum ([1]; phosphate-buffered saline (PBS)): little spectral change
change of spectrum ([1]; water, 16 hours): did not change
blood pressure and heart rate on repeated injections (mice): a decrease in blood pressure and increase in heart rate was observed with each injection
rate of tubular secretion relative to cobinamide-treated tubules ([2]; 1 mM, 70 minute time point (50 minutes after adding drugs), half-strength Schneider's medium): 1.6 times
fluid secretion ([2]; 1 mM, half-strength Schneider's medium): stimulated fluid secretion to a similar extent as 100 μM 8-CPT-cGMP, but somewhat less than 500 μM Deta-NONOate
fluid secretion ([2]; full strength of Schneider's medium): no effect
increased nitrite and nitrate as share of the NO added as NO-Cbi ([3]; 10 μM NO-Cbi, CS-54 cells): 55%
nitrite and nitrate in the culture medium ([3]; 10 μM NO-Cbi, CS-54 cells): increased nitrite and nitrate
half-life of NO-Cbi estimated from nitrite and nitrate accumulation ([3]; rat): 0.5 h and 1 h

Reference: patent US8222242B2, “Nitric oxide releasing compounds” (The Regents of the University of California, priority 2008, dated 2012)
